Assay results: US10125126B2, “N-cycloalkyl-N-[(heterocyclylphenyl)methylene]-(thio)carboxamide derivatives” (BAYER CROPSCIENCE AG, priority 2012, dated 2018)
Each block holds one compound with its values, some of them ahead of it.

Assays:
Uromyces appendiculatus = assay: In vivo preventive test on Uromyces appendiculatus (bean rust); details: bean plants, 11 days after contamination
Procedure: In Vivo Preventive Test on Uromyces appendiculatus (Bean Rust) […] Bean plants (“Saxa” variety), sown in starter cups on a 50/50 peat soil pozzolana substrate and grown at 24° C., are treated at the 2 leaf stage (9 cm height) by spraying with the active ingredient prepared as described above. Plants, used as controls, are treated with the mixture of acetone/tween/DMSO/water not containing the active material. After 24 hours, the plants are contaminated by spraying the leaves with an aqueous suspension of Uromyces appendiculatus spores (150 000 spores per mL). The spores are collected from infected plants and are suspended in water containing 2.5 mL/L of Tween 80 at 10%. […] Grading (% of efficacy) is carried out 11 days after the contamination, in comparison with the control plants.

[1] = log P by HPLC on a reversed-phase column (C 18), EEC Directive 79/831 Annex V.A8; type: physicochemical; details: HPLC on reversed-phase column (C 18), 40° C., 0.1% aqueous formic acid and acetonitrile, linear gradient 10% to 90% acetonitrile
Procedure, shortened: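 Compounds are eluted at 40° C using 0.1% aqueous formic acid and acetonitrile in a linear gradient from 10% to 90% acetonitrile. Unbranched alkan-2-ones bearing 3 to 16 carbons with known log P serve as calibrants. Each log P is interpolated linearly from retention times of the two bracketing alkanones.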

Septoria tritici = assay: In vivo preventive test on Septoria tritici (wheat); details: wheat plants, 24 days after contamination
Procedure: In Vivo Preventive Test on Septoria tritici (Wheat) […] Wheat plants (“Scipion” variety), sown in starter cups on a 50/50 peat soil pozzolana substrate and grown at 22° C., are treated at the 1 leaf stage (10 cm height) by spraying with the active ingredient prepared as described above. Plants, used as controls, are treated with the mixture of acetone/tween/DMSO/water not containing the active material. After 24 hours, the plants are contaminated by spraying the leaves with an aqueous suspension of cryopreserved Septoria tritici spores (500 000 spores per mL). The contaminated wheat plants are incubated for 72 hours at 18° C. and at 100% relative humidity, and then for 21 days at 90% relative humidity. Grading (% of efficacy) is carried out 24 days after the contamination, in comparison with the control plants.

Botrytis cinerea = assay: In vivo preventive test on Botrytis cinerea (grey mould); details: gherkin plants, 4 to 5 days after contamination
Procedure: In Vivo Preventive Test on Botrytis cinerea (Grey Mould) […] Gherkin plants (“Vert petit de Paris” variety), sown in starter cups on a 50/50 peat soil pozzolana substrate and grown at 24° C., are treated at the Z11 cotyledon stage by spraying with the active ingredient prepared as described above. Plants, used as controls, are treated with the mixture of acetone/tween/DMSO/water not containing the active material. After 24 hours, the plants are contaminated by spraying the cotyledons with an aqueous suspension of cryopreserved Botrytis cinerea spores (50 000 spores per mL). The spores are suspended in a nutrient solution composed of 10 g/L of PDB, 50 g/L of D-Fructose, 2 g/L of NH4NO3 and 1 g/L of KH2PO4. The contaminated gherkin plants are incubated at 17° C. and at 90% relative humidity. Grading (% of efficacy) is carried out 4 to 5 days after the contamination, in comparison with the control plants.

Sphaerotheca fuliginea = assay: In vivo preventive test on Sphaerotheca fuliginea (powdery mildew on cucurbits); details: gherkin plants, 12 days after contamination
Procedure: In Vivo Preventive Test on Sphaerotheca fuliginea (Powdery Mildew on Cucurbits) […] Gherkin plants (“Vert petit de Paris” variety), sown in starter cups on a 50/50 peat soil-pozzolana substrate and grown at 24° C., are treated at the Z11 cotyledon stage by spraying with the active ingredient prepared as described above. Plants, used as controls, are treated with the mixture of acetone/tween/DMSO/water not containing the active material. After 24 hours, the plants are contaminated by spraying the cotyledons with an aqueous suspension of Sphaerotheca fuliginea spores (100 000 spores per mL). The spores are collected from infected plants. […] Grading (% of efficacy) is carried out 12 days after the contamination, in comparison with the control plants.

Puccinia recondita = assay: In vivo preventive test on Puccinia recondita (brown rust on wheat); details: wheat plants, 12 days after contamination
Procedure: In Vivo Preventive Test on Puccinia recondita (Brown Rust on Wheat) […] Wheat plants (“Scipion” variety), sown in starter cups on a 50/50 peat soil pozzolana substrate and grown at 22° C., are treated at the 1 leaf stage (10 cm height) by spraying with the active ingredient prepared as described above. Plants, used as controls, are treated with the mixture of acetone/tween/DMSO/water not containing the active material. After 24 hours, the plants are contaminated by spraying the leaves with an aqueous suspension of Puccinia recondita spores (100 000 spores per mL). The spores are collected from an infected plant and are suspended in water containing 2.5 mL/L of Tween 80 at 10%. […] Grading (% of efficacy) is carried out 12 days after the contamination, in comparison with the control plants.

logP [1]: 4.44
Compound: Cn1nc(C(F)F)c(C(=O)N(Cc2ccc(F)cc2-c2csc3ccccc23)C2CC2)c1F [I.158]
Efficacy (Uromyces appendiculatus; 500 ppm of active ingredient): 91%
Efficacy (Septoria tritici; 500 ppm of active ingredient): 98%
Efficacy (Botrytis cinerea; 500 ppm of active ingredient): 100%
Efficacy (Sphaerotheca fuliginea; 500 ppm of active ingredient): 100%
Efficacy (Puccinia recondita; 500 ppm of active ingredient): 81%

logP [1]: 3.70
Compound: COc1ccsc1-c1cc(F)ccc1CN(C(=O)c1c(C(F)F)nn(C)c1F)C1CC1 [I.122]
Efficacy (Uromyces appendiculatus; 500 ppm of active ingredient): 100%
Efficacy (Septoria tritici; 500 ppm of active ingredient): 100%
Efficacy (Botrytis cinerea; 500 ppm of active ingredient): 100%
Efficacy (Sphaerotheca fuliginea; 500 ppm of active ingredient): 100%
Efficacy (Puccinia recondita; 500 ppm of active ingredient): 98%

logP [1]: 4.27
Compound: Cn1nc(C(F)F)c(C(=O)N(Cc2ccccc2-c2csc3ccccc23)C2CC2)c1F [I.156]
Efficacy (Septoria tritici; 500 ppm of active ingredient): 96%
Efficacy (Botrytis cinerea; 500 ppm of active ingredient): 97%
Efficacy (Sphaerotheca fuliginea; 500 ppm of active ingredient): 95%
Efficacy (Puccinia recondita; 500 ppm of active ingredient): 81%

logP [1]: 3.83
Compound: COc1ccsc1-c1ccc(C)cc1CN(C(=O)c1c(C(F)F)nn(C)c1F)C1CC1 [I.125]
Efficacy (Septoria tritici; 100 ppm of active ingredient): 96%
Efficacy (Botrytis cinerea; 100 ppm of active ingredient): 78%
Efficacy (Sphaerotheca fuliginea; 100 ppm of active ingredient): 95%
Efficacy (Puccinia recondita; 100 ppm of active ingredient): 81%

logP [1]: 3.25
Compound: Cn1ccc(-c2ccccc2CN(C(=O)c2c(C(F)F)nn(C)c2F)C2CC2)c1 [I.49]
Efficacy (Uromyces appendiculatus; 500 ppm of active ingredient): 100%
Efficacy (Septoria tritici; 500 ppm of active ingredient): 96%
Efficacy (Botrytis cinerea; 500 ppm of active ingredient): 99%
Efficacy (Sphaerotheca fuliginea; 500 ppm of active ingredient): 78%

logP [1]: 4.51
Compound: Cn1nc(C(F)F)c(C(=O)N(Cc2ccccc2-c2ccc(Cl)s2)C2CC2)c1Cl [I.141]
Efficacy (Septoria tritici; 500 ppm of active ingredient): 83%
Efficacy (Botrytis cinerea; 500 ppm of active ingredient): 90%
Efficacy (Puccinia recondita; 500 ppm of active ingredient): 86%

logP [1]: 4.26
Compound: Cc1ccc(-c2ccsc2Cl)c(CN(C(=O)c2c(C(F)F)nn(C)c2F)C2CC2)c1 [I.150]
Efficacy (Septoria tritici; 100 ppm of active ingredient): 80%
Efficacy (Botrytis cinerea; 100 ppm of active ingredient): 90%
Efficacy (Sphaerotheca fuliginea; 100 ppm of active ingredient): 100%
Efficacy (Puccinia recondita; 100 ppm of active ingredient): 81%

logP [1]: 4.14
Compound: COc1ccsc1-c1cc(Cl)ccc1CN(C(=O)c1c(C(F)F)nn(C)c1F)C1CC1 [I.123]
Efficacy (Uromyces appendiculatus; 500 ppm of active ingredient): 99%
Efficacy (Septoria tritici; 500 ppm of active ingredient): 94%
Efficacy (Botrytis cinerea; 500 ppm of active ingredient): 100%
Efficacy (Sphaerotheca fuliginea; 500 ppm of active ingredient): 100%
Efficacy (Puccinia recondita; 500 ppm of active ingredient): 94%

logP [1]: 4.29
Compound: Cn1nc(C(F)F)c(C(=S)N(Cc2ccccc2-c2cccs2)C2CC2)c1F [I.75]
Efficacy (Uromyces appendiculatus; 500 ppm of active ingredient): 100%
Efficacy (Septoria tritici; 500 ppm of active ingredient): 86%
Efficacy (Botrytis cinerea; 500 ppm of active ingredient): 100%
Efficacy (Sphaerotheca fuliginea; 500 ppm of active ingredient): 90%
Efficacy (Puccinia recondita; 500 ppm of active ingredient): 94%

logP [1]: 3.31
Compound: Cn1nc(C(F)F)c(C(=O)N(Cc2ccccc2-c2ccco2)C2CC2)c1F [I.32]
Efficacy (Uromyces appendiculatus; 100 ppm of active ingredient): 74%
Efficacy (Botrytis cinerea; 100 ppm of active ingredient): 94%
Efficacy (Puccinia recondita; 100 ppm of active ingredient): 88%

logP [1]: 3.99
Compound: Cn1nc(C(F)F)c(C(=O)N(Cc2cc(Cl)ccc2-c2ccsc2)C2CC2)c1F [I.66]
Efficacy (Uromyces appendiculatus; 500 ppm of active ingredient): 100%
Efficacy (Botrytis cinerea; 500 ppm of active ingredient): 91%
Efficacy (Sphaerotheca fuliginea; 500 ppm of active ingredient): 95%
Efficacy (Puccinia recondita; 500 ppm of active ingredient): 94%

logP [1]: 4.41
Compound: Cn1cc(C(=O)N(Cc2cc(-c3ccc(Cl)s3)ccc2Cl)C2CC2)c(C(F)F)n1 [I.144]
Efficacy (Uromyces appendiculatus; 500 ppm of active ingredient): 94%
Efficacy (Septoria tritici; 500 ppm of active ingredient): 100%
Efficacy (Botrytis cinerea; 500 ppm of active ingredient): 98%
Efficacy (Puccinia recondita; 500 ppm of active ingredient): 75%

logP [1]: 3.78
Compound: CC(c1ccccc1-c1ccsc1)N(C(=O)c1c(C(F)F)nn(C)c1F)C1CC1 (stereo not shown) [I.82]
Efficacy (Septoria tritici; 100 ppm of active ingredient): 97%
Efficacy (Botrytis cinerea; 100 ppm of active ingredient): 97%
Efficacy (Sphaerotheca fuliginea; 100 ppm of active ingredient): 98%
Efficacy (Puccinia recondita; 100 ppm of active ingredient): 81%

logP [1]: 3.78
Compound: Cn1nc(C(F)F)c(C(=O)N(Cc2ccccc2-c2cccs2)C2CC2)c1Cl [I.78]
Efficacy (Uromyces appendiculatus; 500 ppm of active ingredient): 85%
Efficacy (Septoria tritici; 500 ppm of active ingredient): 83%
Efficacy (Botrytis cinerea; 500 ppm of active ingredient): 78%

logP [1]: 5.06
Compound: Cn1nc(C(F)F)c(C(=O)N(Cc2cc(-c3ccc(Cl)s3)ccc2Cl)C2CC2)c1Cl [I.145]
Efficacy (Uromyces appendiculatus; 500 ppm of active ingredient): 100%
Efficacy (Septoria tritici; 500 ppm of active ingredient): 94%
Efficacy (Botrytis cinerea; 100 ppm of active ingredient): 100%
Efficacy (Puccinia recondita; 500 ppm of active ingredient): 88%
